Five molecules from patent publication US5356915A, “Tetralones with pharmacological activity, compositions containing them” (J. Uriach & Cia. S.A., priority 1992, dated 1994) can be followed below.

In general, IC50 refers to the point on the concentration scale where inhibition reaches its midpoint. Higher therefore signals a need for much substance. The term EC50 denotes the midpoint of the concentration-response curve. Read a low EC50 as higher potency in that assay.

The test system of test [1] is noradrenaline induced contractions in isolated rat portal vein. In words: Inhibition of noradrenaline induced contractions in isolated rat portal vein (Test 1). The note with it: 0.5 h, noradrenaline 3 μM, 30 min incubation, 37° C., pH 7.2, mean of at least two experiments. Here is the method: Test 1: Inhibition of noradrenaline induced contractions in isolated rat portal vein.
Portal vein was extracted from adult male rats (b.w. 200-250 g), that had been stunned and exanguinated. Vein strips were suspended in an isolated organ bath (Letica) containing a physiological saline solution continuously bubbled with 5% CO2, 95% O2 gas at 37° C., pH 7.2. Contractions were induced by noradrenaline (3 μM) and were reverted after thorough washing with physiological saline solution. Portal vein contraction was measured with an isometric force transducer at an initial tension of 1 g. After two equal contractions with noradrenaline, performed in order to measure the tissue's basal response, the test compounds were incubated for 30 minutes and a new contraction was induced. The concentration that produces a 50% inhibition (IC50) versus the basal response was calculated. The experiment was repeated at least two times and the mean was calculated.

Test [2] deals with arterial pressure in conscious spontaneously hypertensive rats. In words: Lowering of the arterial pressure in conscious spontaneously hypertensive rats (Test 2). Format: in vivo, rat. The note with it: conscious spontaneously hypertensive male rats, caudal artery, at least 4 animals. Here is the method: Test 2: Lowering of the arterial pressure in conscious spontaneously hypertensive rats.
Spontaneously hypertensive male rats (b.w. 200-250 g) were used. Diastolic and systolic arterial pressure were measured at the caudal artery using a sphygnomanometer (Letica 5007 and 5007/4) attached to the animal's tail. To ensure rapid and reliable data, animals were placed on a heating plate at 37° C., with the aim of producing a vasodilatation that ensured better fixation of the rat tail to the transducer chamber. During the experiment, rats were conscious and fixed by a clamp. The test products were administered orally. Arterial pressure was measured every 60 minutes over a period of 4 hours and 10 minutes before the administration of the test compound. […]

Test [3] concerns isolated guinea pig tracheal spirals. As to the kind of experiment: Direct relaxation of isolated guinea pig tracheal spirals (Test 3). The conditions noted are these: Cavia porcellus; 50% of maximum relaxation (isoproterenol 1×10^-6 M = maximum); isolated guinea pig tracheae; 37° C., pH 7.4; mean of at least two experiments. Here is the method: Test 3 -Direct relaxation of isolated guinea pig tracheal spirals.
Tracheae were extracted from male guinea pigs of (b.w. 400 g) that had been stunned and exanguinated. Then, tracheae were cut in zigzag sections and placed in an isolated organ bath (Letica) containing Krebs-Henseleit solution at 37° C., pH 7.4, continuously bubbled with carbogen (95% O2 and 5% CO2). The relaxation of the tracheae was measured using an isometric force transducer. The basal tension was 0.5 g. The test compounds were cumulatively added to the bath and the effective concentration that produced 50% of the maximum relaxation (EC50) was calculated. The maximum relaxation was taken to be the relaxation induced by isoproterenol at 1×10^-6 M. The experiment was repeated at least two times and the mean was calculated.

In turn, `CC1(C)CC(c2cccc[n+]2[O-])c2cc(C#N)ccc2C1=O` (racemic) [Compound 12, (±)-2,2-Dimethyl-4-(N-oxide-2-pyridyl)-1-oxo-1,2,3,4-tetrahydronaphthalen-6-carbonitrile] displayed an IC50 in test [1] of 200 nM. Moreover, the “Pressure Drop ± SEM” value in test [2] (1 mg/Kg p.o. (footnote *)) is listed as 95 ± 9 mm Hg. In test [3], this molecule registered an EC50 of 3000 nM.
In test [1], `CC1(C)C=C(c2cccc[n+]2[O-])c2cc(Br)ccc2C1=O` [Compound 4, 6-Bromo-1,2-dihydro-2,2-dimethyl-4-(N-oxide-2-pyridyl)naphthalen-1-one] showed an IC50 of 800 nM. In test [2] (0.1 mg/Kg p.o.), the “Pressure Drop ± SEM” value was 53 ± 8 mm Hg. Besides, the EC50 in test [3] stood at 200 nM.
Consider `CC1(C)C=C(c2cccc[n+]2[O-])c2cc(C#N)ccc2C1=O` [Compound 10, 1,2-Dihydro-2,2-dimethyl-4-(N-oxide-2-pyridyl)-1-oxonaphthalen-6-carbonitrile], for which the IC50 in test [1] stood at 900 nM. In addition, in test [2] (0.1 mg/Kg p.o.), the “Pressure Drop ± SEM” value is given as 53 ± 15 mm Hg. Further, the EC50 in test [3] is 200 nM.
Taken in the same sequence, the figures for `CC1(C)C=C(c2cccc[n+]2[O-])c2cc(C(F)(F)C(F)(F)F)ccc2C1=O` [Compound 15, 1,2-Dihydro-2,2-dimethyl-4-(N-oxide-2-pyridyl)-6-pentafluoroethylnaphthalen-1-one] were 600 nM, 98 ± 20 mm Hg and 100 nM.
As for `CC1(C)C=C(c2cccc[n+]2[O-])c2cc(Cl)c(Cl)cc2C1=O` [Compound 18], the IC50 in test [1] came to 500 nM. Moreover, the “Pressure Drop ± SEM” value in test [2] (0.1 mg/Kg p.o.) is listed as 74 ± 42 mm Hg. Besides, in test [3], the response was half-maximal at 200 nM (EC50).
